pKi: −log10 of the molar value.
What was measured:
[1] = target: T1, Orexin/Hypocretin receptor type 1 (Homo sapiens) (UniProt O43613); assay: Antagonist activity at human OX1R expressed in CHOK1 cells assessed as inhibition of orexin A-induced intracellular Ca2+ release at 10 uM preincubated for 15 mins followed by orexin A addition by Fura 2-AM dye based fluorescence assay […]; assay type: functional, cell-based
T1 sequence (whole entry): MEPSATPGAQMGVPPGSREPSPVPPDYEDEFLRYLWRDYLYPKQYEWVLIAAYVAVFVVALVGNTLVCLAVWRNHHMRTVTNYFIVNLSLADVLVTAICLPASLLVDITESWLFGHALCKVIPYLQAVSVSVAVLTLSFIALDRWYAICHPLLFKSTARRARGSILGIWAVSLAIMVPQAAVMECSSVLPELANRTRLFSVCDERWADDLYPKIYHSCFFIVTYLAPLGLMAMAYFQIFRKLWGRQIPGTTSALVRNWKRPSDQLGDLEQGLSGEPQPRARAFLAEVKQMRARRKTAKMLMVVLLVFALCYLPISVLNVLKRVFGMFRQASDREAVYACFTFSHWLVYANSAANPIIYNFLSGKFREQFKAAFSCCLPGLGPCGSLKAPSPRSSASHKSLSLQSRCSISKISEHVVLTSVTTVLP

[2] = target: T2, Orexin/Hypocretin receptor type 1 (Homo sapiens, UniProt O43613); assay: Antagonist activity at human OX1R expressed in CHOK1 cells assessed as inhibition of orexin A-induced intracellular Ca2+ release preincubated for 15 mins followed by orexin A addition by Fura 2-AM dye based fluorescence assay based by Cheng-Prusoff equation analysis; assay type: functional, cell-based
T2 sequence (O43613 whole entry): T1 sequence (whole entry)

SMILES: COc1ccc2c3c1O[C@H]1[C@@H](N(C)C(=O)/C=C/c4ccoc4)CC[C@](O)([C@@H]31)[C@H](N(CC1CC1)S(=O)(=O)c1ccccc1)C2
- inhibition [1]: 11%

SMILES: COc1ccc2c3c1O[C@H]1[C@H](N(C)C(=O)/C=C/c4ccoc4)CC[C@](O)([C@@H]31)[C@H](N(CC1CC1)S(=O)(=O)c1ccccc1)C2
- pKi [2]: 7.00

SMILES: COc1ccc2c(c1)[C@H]1C[C@H](N(C)C(=O)/C=C/c3ccoc3)CC[C@@]1(O)[C@H](N(CC1CC1)S(=O)(=O)c1ccccc1)C2
- pKi [2]: 6.07

SMILES: COc1ccc2c3c1O[C@@H]1[C@H]3[C@@H](CC[C@H]1N(C)C(=O)/C=C/c1ccoc1)[C@H](N(CC1CC1)S(=O)(=O)c1ccccc1)C2
- pKi [2]: 7.68

From ChEMBL document CHEMBL4385659, “Essential structure of orexin 1 receptor antagonist YNT-707, Part IV: The role of D-ring in 4,5-epoxymorphinan on the orexin 1 receptor antagonistic activity” (Bioorg Med Chem Lett, 2019)
